Laboratory results taken from patent US8835501B2, “Pharmaceutical formulations of HDAC inhibitors” (TopoTarget UK Limited, priority 2005, dated 2014).
Converted amounts (≈) assume the structure as drawn. “And” between values parts separate entries of the source, which are not always exact repeats. Equal entries are not always repeated. Where two headings read alike, the source gives them in different places.

Tests used:
[1] = Solubility enhancement with acidic and basic in situ salt formers (~[…])
[2] = Solubility enhancement with cyclodextrins (saturated PXD-101 samples; HP-β-CD phase solubility); format: physicochemical; conditions: saturated PXD-101 in aqueous cyclodextrin 250 mg/mL (α-CD 100 mg/mL)
Method: Saturated samples of PXD-101 were prepared in aqueous solutions of two natural cyclodextrins (α-CD and γ-CD) and hydroxypropyl derivatives of the α, β and γ cyclodextrins (HP-α-CD, HP-β-CD and HP-γ-CD). […] The calculated saturated solubilities of the complexed HDACi were plotted against the concentration of cyclodextrin. […] This type of phase solubility diagram for cyclodextrins is referred to as an A-Type phase solubility plot. […] This deviation may be due to experimental error caused by the decision to use of mass, instead of volume, to dispense the more concentrated cyclodextrin samples due to their viscosity. Alternatively, it is possible that there is a slight deviation from the linear A-Type phase solubility behaviour.

[3] = Dilution experiments of saturated HDACi/salt former solutions; format: physicochemical; conditions: for appearance after dilution with pH 7.4 phosphate buffer: 0.47 M and 0.314 M saturated samples
[4] = humans, given as a nutritional additive; cited from earlier work
[5] = cited from earlier work
[6] = Phase solubility for arginine and meglumine
[7] = Solubility of PXD-101 in demineralised water; format: physicochemical
physchem = conditions: thermodynamic from solid, PXD-101 Concentration
[8] = Solubility enhancement with cyclodextrin and in situ salt formers; format: physicochemical
[9] = Plasma PK analysis after 30-min I.V. infusion in subjects with advanced cancer; format: in vivo, human
Method: Plasma PK analysis was performed for subjects of all dose groups on days 1 and 5 of cycle 1 following 30 minutes of I.V. infusion.

[10] = Oral administration of PXD-101 (gelatin capsule) to subjects; format: in vivo, human
Excerpt: Several subjects received PXD-101 in an oral formulation (e.g., PXD-101 in a gelatin capsule). […] Bioavailability for the oral formulation was approximately 33%.

[11] = tested on: histone (H4 and/or H3) acetylation in peripheral blood mononuclear cells; assay: Pharmacodynamic analysis: histone acetylation in peripheral blood mononuclear cells; format: in vivo, human; conditions: intravenous administration
Excerpt: Histones were isolated and probed with anti-acetylated histone (H4 and/or H3) antibody followed by HRP-secondary antibody.

[12] = human, in vivo, iv
[13] = pH solubility profile in buffered 25% w/v HP-β-CD; format: physicochemical
Excerpt: It was noted that zwitterions can be self-buffering and this effect caused some instability in the buffering capacity of the buffer systems at high pH. Therefore, the required pH could only be achieved by adjusting the pH of the system by the addition of 1 M NaOH.

[14] = PXD-101 in basic in situ salt former, […]
[15] = PXD-101 in acidic in situ salt former, […]
[16] = 150 mg/m^2, 30-min I.V. infusion, cycle 1
[17] = 300 mg/m^2, 30-min I.V. infusion, cycle 1
[18] = 600 mg/m^2, 30-min I.V. infusion, cycle 1
[19] = 900 mg/m^2, 30-min I.V. infusion, cycle 1
[20] = 1200 mg/m^2, 30-min I.V. infusion, cycle 1

NC(CO)(CO)CO [Tris]
pH of Solution [1, 14]: 8.97

OC[C@H]1O[C@@H]2O[C@H]3[C@H](O)[C@@H](O)[C@@H](O[C@H]4[C@H](O)[C@@H](O)[C@@H](O[C@H]5[C@H](O)[C@@H](O)[C@@H](O[C@H]6[C@H](O)[C@@H](O)[C@@H](O[C@H]7[C@H](O)[C@@H](O)[C@@H](O[C@H]1[C@H](O)[C@H]2O)O[C@@H]7CO)O[C@@H]6CO)O[C@@H]5CO)O[C@@H]4CO)O[C@@H]3CO [α-CD, α-cyclodextrin]
HDACi (PXD-101) Concentration [2]: 0.65 mg/mL

O=C(O)/C=C\C(=O)O [Maleic Acid]
pH of Solution [1, 15]: 1.65

N=C(N)NCCC[C@H](N)C(=O)O [Arginine, (S)-2-amino-5-[(aminoiminomethyl)-amino]pentanoic acid]
appearance after dilution with pH 7.4 phosphate buffer [3]: initially clear solutions but some crystallisation
well tolerated dose [4]: up to 30 g/kg
content of saturated aqueous solution ([5]; water, 21° C.): 15 % w/w

O=C(O)CC(O)C(=O)O (centres unmarked) [Malic Acid]
pH of Solution [1, 15]: 2.19
S/D Molar ratio (salt former-to-HDACi) ([1]; acidic in situ salt former, […]): 309

OCCNCCO [Diethanolamine]
pH of Solution [1, 14]: 9.13

CNC[C@H](O)[C@@H](O)[C@H](O)[C@H](O)CO [Meglumine, 1-deoxy-1-(methylamino)-D-glucitol]
pH of saturated HDACi solution ([6]; basic salt ×1, 0.157 M): 9.20
pH of saturated HDACi solution ([6]; basic salt ×2, 0.314 M): 9.33
pH of saturated HDACi solution ([6]; basic salt ×3, 0.47 M): 9.40
Predicted Salt Former Conc. to achieve target PXD-101 Conc. ([6]; target PXD-101 50 mg/mL): 79.2 mg/mL
Predicted Salt Former Conc. to achieve target PXD-101 Conc. ([6]; target PXD-101 70 mg/mL): 126.9 mg/mL
Predicted Salt Former Conc. to achieve target PXD-101 Conc. ([6]; target PXD-101 100 mg/mL): 158.3 mg/mL
appearance after dilution with pH 7.4 phosphate buffer [3]: turbid solutions
solubility in water ([5]; 25° C.): ~100 g in 100 mL

O=C(/C=C/c1cccc(S(=O)(=O)Nc2ccccc2)c1)NO [PXD-101, N-hydroxy-3-(3-phenylsulfamoyl-phenyl)-acrylamide]
solubility [7]: 0.14 mg/mL (≈ 0.44 mM)
solubility thermodynamic (physchem; pH 9.07, aqueous with cosolvent or surfactant or cyclodextrin): 13.5 mg/mL (≈ 42.4 mM)
solubility thermodynamic (physchem; pH 9.1, aqueous with cosolvent or surfactant or cyclodextrin): 7.9 mg/mL (≈ 24.8 mM)
solubility thermodynamic (physchem; pH 9.19, aqueous with cosolvent or surfactant or cyclodextrin): 31.1 mg/mL (≈ 97.7 mM)
solubility thermodynamic (physchem; pH 9.2, aqueous with cosolvent or surfactant or cyclodextrin): 21.2 mg/mL (≈ 66.6 mM)
solubility thermodynamic (physchem; pH 9.33, aqueous with cosolvent or surfactant or cyclodextrin): 39.1 mg/mL (≈ 123 mM)
solubility thermodynamic (physchem; pH 9.4, aqueous with cosolvent or surfactant or cyclodextrin): 57.3 mg/mL (≈ 180 mM)
PXD-101 Concentration ([8]; 25% w/v HP-β-CD + arginine 0.157 M (27.4 mg/mL)): 39.2 mg/mL
PXD-101 Concentration ([8]; 25% w/v HP-β-CD + arginine 0.314 M (54.8 mg/mL)): 57.1 mg/mL and 57.0 mg/mL
PXD-101 Concentration ([8]; 25% w/v HP-β-CD + meglumine 0.157 M (30.7 mg/mL)): 43.0 mg/mL
PXD-101 Concentration ([8]; 25% w/v HP-β-CD + meglumine 0.314 M (61.4 mg/mL)): 62.5 mg/mL
enhancement of HDACi solubility ([8]; using one or more of cyclodextrin, arginine, meglumine): ~500 fold
AUC0-t/AUC0-∞ [9, 16]: 99.0 ± 0.7%
AUCday 5/AUCday 1 [9, 16]: 115 ± 22%
CLs [9, 16]: 122.6 ± 30.6 L/hr/m^2
Vd [9, 16]: 115.1 ± 43.5 L/m^2
AUC0-t/AUC0-∞ [9, 17]: 99.7 ± 0.1%
AUCday 5/AUCday 1 [9, 17]: 112 ± 21%
CLs [9, 17]: 94.6 ± 34.9 L/hr/m^2
Vd [9, 17]: 88.8 ± 31.8 L/m^2
AUC0-t/AUC0-∞ [9, 18]: 99.9 ± 0.0%
AUCday 5/AUCday 1 [9, 18]: 97%
CLs [9, 18]: 59.6 ± 16.0 L/hr/m^2
Cmax [9, 18]: 31177 ± 8968 ng/mL
Vd [9, 18]: 57.6 ± 13.9 L/m^2
AUC0-t/AUC0-∞ [9, 19]: 99.8 ± 0.1%
CLs [9, 19]: 63.5 ± 16.4 L/hr/m^2
Vd [9, 19]: 48.8 ± 9.8 L/m^2
AUC0-t/AUC0-∞ [9, 20]: 99.8 ± 0.1%
CLs [9, 20]: 66.6 ± 33.5 L/hr/m^2
Vd [9, 20]: 90.2 ± 87.3 L/m^2
accumulation on repeated dosing ([9]; I.V. days 1 to 5): no HDACi accumulation
dose dependence of plasma levels and AUC ([9]; I.V., 150-1200 mg/m^2): dose proportional
AUC(0-t) ([9]; human, plasma, iv, 150 mg/m^2, 30-min I.V. infusion, cycle 1): 1270 ± 272 ng·h/mL
Cmax ([9]; human, plasma, iv, 150 mg/m^2, 30-min I.V. infusion, cycle 1, read-out: Cmax): 6560 ± 2160 ng/mL
half-life ([9]; human, plasma, iv, 150 mg/m^2, 30-min I.V. infusion, cycle 1, read-out: t1/2): 46.6 ± 8.7 min
AUC(0-t) ([9]; human, plasma, iv, 300 mg/m^2, 30-min I.V. infusion, cycle 1): 3500 ± 1100 ng·h/mL
Cmax ([9]; human, plasma, iv, 300 mg/m^2, 30-min I.V. infusion, cycle 1, read-out: Cmax): 15500 ± 6240 ng/mL
half-life ([9]; human, plasma, iv, 300 mg/m^2, 30-min I.V. infusion, cycle 1, read-out: t1/2): 44.6 ± 8 min
AUC(0-t) ([9]; human, plasma, iv, 600 mg/m^2, 30-min I.V. infusion, cycle 1): 10700 ± 3010 ng·h/mL
half-life ([9]; human, plasma, iv, 600 mg/m^2, 30-min I.V. infusion, cycle 1, read-out: t1/2): 43.4 ± 6.7 min
AUC(0-t) ([9]; human, plasma, iv, 900 mg/m^2, 30-min I.V. infusion, cycle 1): 14700 ± 3410 ng·h/mL
Cmax ([9]; human, plasma, iv, 900 mg/m^2, 30-min I.V. infusion, cycle 1, read-out: Cmax): 53800 ± 6380 ng/mL
half-life ([9]; human, plasma, iv, 900 mg/m^2, 30-min I.V. infusion, cycle 1, read-out: t1/2): 54.2 ± 8.7 min
AUC(0-t) ([9]; human, plasma, iv, 1200 mg/m^2, 30-min I.V. infusion, cycle 1): 22000 ± 11000 ng·h/mL
Cmax ([9]; human, plasma, iv, 1200 mg/m^2, 30-min I.V. infusion, cycle 1, read-out: Cmax): 52400 ± 12700 ng/mL
half-life ([9]; human, plasma, iv, 1200 mg/m^2, 30-min I.V. infusion, cycle 1, read-out: t1/2): 85.5 ± 19.6 min
half-life ([9]; human, plasma, iv, I.V., across dose levels 150-1200 mg/m^2, read-out: elimination half-life): 47 to 86 min
plasma levels, oral versus intravenous ([10]; 900 and 1200 mg/m^2, FIG. 12): remain higher when dosed orally
bioavailability ([10]; human, plasma, oral formulation (gelatin capsule)): ~33%
tolerability ([10]; oral dosing, preliminary data): good tolerability
time after administration at which increased acetylated histones could be detected [11]: up to 24 hours
laboratory tests / hematological toxicity [12]: no hematological toxicity was identified
main HDACi-related adverse events [12]: fatigue, nausea, vomiting (infusion-related), and phlebitis
other adverse events [12]: headache, diarrhea, constipation, and dyspnea
PXD-101 Conc. ([13]; pH adjusted with 1M NaOH, actual pH 8.91): 36.0 mg/mL
PXD-101 Conc. ([13]; target pH 4, actual pH 4.35): 14.5 mg/mL
PXD-101 Conc. ([13]; target pH 6, actual pH 5.99): 17.3 mg/mL
PXD-101 Conc. ([13]; target pH 7.4, actual pH 7.28): 18.8 mg/mL
PXD-101 Conc. ([13]; target pH 9.5, actual pH 8.09): 19.4 mg/mL

NCCN [Ethylenediamine]
dilution of saturated HDACi solution to infusion concentration of […] ([3]; basic salt former solutions diluted with 5% w/v glucose and 0.9% w/v saline): incompatibility

NCCCC[C@H](N)C(=O)O [Lysine]
pH of Solution [1]: 9.11

O=C(O)[C@H](O)[C@@H](O)[C@H](O[C@@H]1O[C@H](CO)[C@H](O)[C@H](O)[C@H]1O)[C@H](O)CO [Lactobionic Acid]
pH of Solution [1, 15]: 2.43
